Source: ChEMBL document CHEMBL5543109, “Novel β-Hairpin Antimicrobial Peptide Containing the β-Turn Sequence of -NG- and the Tryptophan Zippers Facilitate Self-Assembly into Nanofibers, Exhibiting Excellent Antimicrobial Performance” (J Med Chem, 2024)
The source made the active and inactive calls. No cut-off for these calls is given here.

What was measured:
[1] = tested on: Escherichia coli; assay: Synergistic antibacterial activity against kanamycin resistant Escherichia coli assessed as fractional inhibitory concentration index incubated for 18 hrs in presence of cefotaxime by checkerboard assay; assay type: functional
[2] = tested on: Klebsiella pneumoniae; assay: Additive antibacterial activity against Klebsiella pneumoniae assessed as fractional inhibitory concentration index incubated for 18 hrs in presence of kanamycin by checkerboard assay; assay type: functional
[3] = Toxicity in BALB/c mouse infected with Staphylococcus aureus 794 assessed as epidermal layer thickness at 1 mg/ml, ip pre-infected with bacteria for 24 hrs followed by compound addition and measured after 13 days by H and E staining based histopathological analysis; assay type: organism-based; settings: in vivo, 312 h, time 13 day
[4] = tested on: Staphylococcus aureus; assay: Additive antibacterial activity against Staphylococcus aureus 125 assessed as fractional inhibitory concentration index incubated for 18 hrs in presence of gentamycin by checkerboard assay; assay type: functional
[5] = tested on: Escherichia coli; assay: Antibacterial activity against kanamycin resistant Escherichia coli assessed as fractional inhibitory concentration index incubated for 18 hrs in presence of kanamycin by checkerboard assay; assay type: functional
[6] = tested on: Escherichia coli; assay: […] antibacterial activity against Escherichia coli assessed as fractional inhibitory concentration index incubated for 18 hrs in presence of polymyxin B by checkerboard assay; assay type: functional
[7] = tested on: Cell membrane; assay: Induction of inner membrane permeabilization in Escherichia coli ML-35 […] measured every 5 mins for 120 mins by ONPG dye based assay; assay type: cell membranes
[8] = Self-assembly property of compound in PBS assessed as beta-sheet protofibrils formation at 128 uM incubated for 30 mins by SEM analysis; assay type: physicochemical; settings: buffer, 0.5 h
[9] = Acute toxicity in mouse assessed as cell swelling at 230.5 mg/kg, ip by H and E staining based assay; assay type: organism-based; settings: in vivo
[10] = tested on: Staphylococcus aureus; assay: Synergistic antibacterial activity against Staphylococcus aureus 794 assessed as fractional inhibitory concentration index incubated for 18 hrs in presence of bacitracin by checkerboard assay; assay type: functional
[11] = tested on: Staphylococcus aureus; assay: Synergistic antibacterial activity against methicillin resistant Staphylococcus aureus assessed as fractional inhibitory concentration index incubated for 18 hrs in presence of cefotaxime by checkerboard assay; assay type: functional
[12] = tested on: Cell membrane; assay: Induction of cell membrane disruption in Escherichia coli assessed as PI uptake at 2 times MIC incubated for 2 hrs by PI staining based flow cytometry analysis (reference value: 11.9%); assay type: cell membranes
[13] = tested on: Staphylococcus aureus; assay: Antibacterial activity against Staphylococcus aureus incubated for 18 hrs in presence of CaCl2 by broth microdilution method; assay type: functional, organism-based
[14] = tested on: Escherichia coli; assay: Antibacterial activity against Escherichia coli at 2 times MIC preincubated with 256 ug/ml LPS for 1 hr followed by bacterial addition and measured after 5 hrs; assay type: functional, organism-based; settings: time 6.0 hrs
[15] = Acute toxicity in ip dosed mouse by karber method; assay type: organism-based; settings: in vivo, read-out: LD50
[16] = Acute toxicity in mouse assessed as tissue hemorrhage at 230.5 mg/kg, ip by H and E staining based assay; assay type: organism-based; settings: in vivo
[17] = tested on: Staphylococcus aureus; assay: Antibacterial activity against Staphylococcus aureus incubated for 18 hrs in presence of FeCl3 by broth microdilution method; assay type: functional, organism-based
[18] = tested on: Staphylococcus aureus; assay: Antibacterial activity against Staphylococcus aureus incubated for 18 hrs in presence of NaCl by broth microdilution method; assay type: functional, organism-based
[19] = Acute toxicity in mouse assessed as inflammatory cell infiltration in lung at 230.5 mg/kg, ip by H and E staining based assay; assay type: organism-based; settings: in vivo
[20] = tested on: Staphylococcus aureus; assay: Antibacterial activity against Staphylococcus aureus 794 infected in BALB/c mouse skin wound infection model assessed as reduction in wound area at 1 mg/ml, ip pre-infected with bacteria for 24 hrs followed by compound addition and measured on day 5; assay type: functional, organism-based; settings: time 5.0 day
[21] = tested on: Staphylococcus aureus; assay: Synergistic antibacterial activity against Staphylococcus aureus 794 assessed as fractional inhibitory concentration index incubated for 18 hrs in presence of cefotaxime by checkerboard assay; assay type: functional
[22] = tested on: Staphylococcus aureus; assay: Antibacterial activity against Staphylococcus aureus infected in BALB/c mouse systemic infection model assessed as reduction in lung bacterial load at 5 to 10 mg/kg, ip measured after 8 hrs; assay type: functional, organism-based; settings: dose 5-10 mg/kg
[23] = tested on: Staphylococcus aureus; assay: Synergistic antibacterial activity against methicillin resistant Staphylococcus aureus 113 assessed as fractional inhibitory concentration index incubated for 18 hrs in presence of bacitracin by checkerboard assay; assay type: functional
[24] = tested on: Escherichia coli; assay: Antibacterial activity against Escherichia coli infected in BALB/c mouse systemic infection model assessed as reduction in liver bacterial load at 5 to 10 mg/kg, ip measured after 24 hrs; assay type: functional, organism-based; settings: dose 5-10 mg/kg
[25] = tested on: Staphylococcus aureus; assay: Synergistic antibacterial activity against methicillin resistant Staphylococcus aureus 75 assessed as fractional inhibitory concentration index incubated for 18 hrs in presence of cefotaxime by checkerboard assay; assay type: functional
[26] = tested on: Staphylococcus aureus; assay: Additive antibacterial activity against Staphylococcus aureus assessed as fractional inhibitory concentration index incubated for 18 hrs in presence of ciprofloxacin by checkerboard assay; assay type: functional
[27] = tested on: Staphylococcus aureus; assay: Synergistic antibacterial activity against methicillin resistant Staphylococcus aureus 75 assessed as fractional inhibitory concentration index incubated for 18 hrs in presence of rifampin by checkerboard assay; assay type: functional
[28] = tested on: Pseudomonas aeruginosa; assay: Induction of morphological change in Pseudomonas aeruginosa assessed as leakage of cellular contents at 2 times MIC incubated for 30 mins by SEM analysis; assay type: functional, organism-based

SMILES: NCCCC[C@@H](NC(=O)[C@H](N)Cc1c[nH]c2ccccc12)C(=O)N[C@H](Cc1c[nH]c2ccccc12)C(=O)N[C@H](CCCCN)C(=O)N[C@H](Cc1c[nH]c2ccccc12)C(=O)N[C@@H](CC(N)=O)C(=O)NCC(=O)N[C@H](Cc1c[nH]c2ccccc12)C(=O)N[C@H](CCCCN)C(=O)N[C@H](Cc1c[nH]c2ccccc12)C(=O)N[C@H](CCCCN)C(=O)N[C@H](Cc1c[nH]c2ccccc12)C(N)=O
- fractional inhibitory concentration index (FICI) [1]: 0.375
- fractional inhibitory concentration index (FICI) [2]: 0.563
- Activity [3]: Non-Toxic
- fractional inhibitory concentration index (FICI) [4]: 0.563
- fractional inhibitory concentration index (FICI) [5]: 0.188
- fractional inhibitory concentration index (FICI) [6]: 0.375
- Activity [7]: Dose-Dependent Effect
- Activity [8]: Active
- Activity [9]: Toxic
- fractional inhibitory concentration index (FICI) [10]: 0.313
- fractional inhibitory concentration index (FICI) [11]: 0.313
- Activity [12]: 86.2%
- Activity [13]: Active
- Activity [14]: inactive
- LD50 [15]: 230 mg/kg
- Activity [16]: Toxic
- Activity [17]: Active
- Activity [18]: Active
- Activity [19]: Toxic
- Activity [20]: Active
- fractional inhibitory concentration index (FICI) [21]: 0.313
- Activity [22]: Active
- fractional inhibitory concentration index (FICI) [23]: 0.5
- Activity [24]: Active
- fractional inhibitory concentration index (FICI) [25]: 0.375
- fractional inhibitory concentration index (FICI) [26]: 1
- fractional inhibitory concentration index (FICI) [27]: 0.313
- Activity [28]: Active
